# Data taken from PubChem BioAssay AID330 (DTP/NCI, 2004).
# Several values for one entry are separate records, joined by “and”; a condition that tells them apart may be missing. Equal entries are not always repeated. Inconclusive results and toxic doses are left out. Square brackets hold non-standard residues; d marks the D form. Peptide text beside a SMILES is read from it. ξ: configuration not given here. ξPhe(4-N(CH2CH2Cl)2) = NC(Cc1ccc(N(CCCl)CCCl)cc1)C(=O)O
# Tested on: P388 leukemia ip, CD2F1 mice, survival T/C
# Assay: NCI In Vivo Anticancer Drug Screen. Data for tumor model P388 Leukemia (intraperitoneal) in CD2F1 (CDF1) mice
# Settings: endpoint: median survival time, higher = longer survival
# Procedure, shortened: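 Mice carrying the transplanted tumor received test compound or vehicle. Survival was recorded in each group, and the value is the treated-group measurement divided by that of the vehicle-treated control group.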
# [1] = dose: 60.0 mg/kg/injection, schedule: Q01DX005 (ip), vehicle: Klucel (hydroxypropylcellulose) (HPC)
# [2] = dose: 120.0 mg/kg/injection, schedule: Q01DX005 (ip), vehicle: Klucel (hydroxypropylcellulose) (HPC)
# [3] = dose: 100.0 mg/kg/injection, schedule: Q01DX009 (ip), vehicle: saline with Tween-80
# [4] = dose: 100.0 mg/kg/injection, schedule: Q04DX003 (ip), vehicle: saline with Tween-80
# [5] = dose: 200.0 mg/kg/injection, schedule: Q01DX009 (ip), vehicle: saline with Tween-80
# [6] = dose: 200.0 mg/kg/injection, schedule: Q04DX003 (ip), vehicle: saline with Tween-80
# [7] = dose: 5.0 mg/kg/injection, schedule: Q04DX003 (ip), vehicle: water
# [8] = dose: 10.0 mg/kg/injection, schedule: Q04DX003 (ip), vehicle: water
# [9] = dose: 20.0 mg/kg/injection, schedule: Q04DX003 (ip), vehicle: water
# [10] = dose: 40.0 mg/kg/injection, schedule: Q04DX003 (ip), vehicle: water
# [11] = dose: 80.0 mg/kg/injection, schedule: Q04DX003 (ip), vehicle: water
# [12] = dose: 12.5 mg/kg/injection, schedule: Q01DX009 (ip), vehicle: saline
# [13] = dose: 25.0 mg/kg/injection, schedule: Q01DX009 (ip), vehicle: saline
smiles,measurement,setting,value
CNC(=O)OCc1nn(-c2ccccc2)c(C)c1COC(=O)NC,T/C,"dose: 12.5 mg/kg/injection, schedule: Q01DX009 (ip), vehicle: distilled water + Tween-80",97 % of control
same,T/C,"dose: 25.0 mg/kg/injection, schedule: Q01DX009 (ip), vehicle: distilled water + Tween-80",97 % of control
same,T/C,"dose: 50.0 mg/kg/injection, schedule: Q01DX009 (ip), vehicle: distilled water + Tween-80",97 % of control
same,T/C,"dose: 100.0 mg/kg/injection, schedule: Q01DX009 (ip), vehicle: distilled water + Tween-80",92 % of control
same,T/C,"dose: 200.0 mg/kg/injection, schedule: Q01DX009 (ip), vehicle: distilled water + Tween-80",92 % of control
CS(=O)CC1=NC(=N)N=C1CS(C)=O (stereo not drawn),T/C,"dose: 60.0 mg/kg/injection, schedule: Q01DX005 (ip), vehicle: saline",100 % of control
same,T/C,"dose: 120.0 mg/kg/injection, schedule: Q01DX005 (ip), vehicle: saline",102 % of control
same,T/C,"dose: 240.0 mg/kg/injection, schedule: Q01DX005 (ip), vehicle: saline",100 % of control
CCC1=C[C@@H]2C[C@](C(=O)OC)(c3cc4c(cc3OC)N(C)[C@H]3[C@@](O)(C(=O)OC)[C@H](OC(C)=O)[C@]5(CC)C=CCN6CC[C@]43[C@@H]65)c3[nH]c4ccccc4c3CCN(C1)C2=O,T/C,"dose: 4.7 mg/kg/injection, schedule: Q01DX001 (ip), vehicle: other",113 % of control
same,T/C,"dose: 9.4 mg/kg/injection, schedule: Q01DX001 (ip), vehicle: other",117 % of control
same,T/C,"dose: 37.5 mg/kg/injection, schedule: Q01DX001 (ip), vehicle: suspension in saline",195 % of control
CC1(C)NN=C([N+](=O)[O-])C1c1ccccc1 (stereo not drawn),T/C,"dose: 60.0 mg/kg/injection, schedule: Q01DX005 (ip), vehicle: saline with Tween-80",107 % of control
same,T/C,"dose: 120.0 mg/kg/injection, schedule: Q01DX005 (ip), vehicle: saline with Tween-80",111 % of control
same,T/C,"dose: 240.0 mg/kg/injection, schedule: Q01DX005 (ip), vehicle: saline with Tween-80",107 % of control
CCCCN1C(=O)C(=C/C=C/C=C2\Oc3ccccc3N2CCCS(=O)(=O)O)C(=O)N(CCCC)C1=S,T/C,[1],106 % of control
same,T/C,[2],106 % of control
same,T/C,"dose: 240.0 mg/kg/injection, schedule: Q01DX005 (ip), vehicle: Klucel (hydroxypropylcellulose) (HPC)",106 % of control
CCCCCCCCCCC(=O)CCCC,T/C,[3],109 % of control
same,T/C,[4],100 % of control
same,T/C,[5],104 % of control
same,T/C,[6],95 % of control
same,T/C,"dose: 400.0 mg/kg/injection, schedule: Q01DX009 (ip), vehicle: saline with Tween-80",109 % of control
same,T/C,"dose: 400.0 mg/kg/injection, schedule: Q04DX003 (ip), vehicle: saline with Tween-80",95 % of control
NCCC(=O)OCN1C(=O)C2C3C=CC(C2C1=O)C1C2C(=O)N(COC(=O)CCN)C(=O)C2C31 (stereo not drawn),T/C,"dose: 12.5 mg/kg/injection, schedule: Q01DX009 (ip), vehicle: water",88 % of control
same,T/C,"dose: 25.0 mg/kg/injection, schedule: Q01DX009 (ip), vehicle: water",102 % of control
same,T/C,"dose: 50.0 mg/kg/injection, schedule: Q01DX009 (ip), vehicle: water",99 % of control
same,T/C,"dose: 100.0 mg/kg/injection, schedule: Q01DX009 (ip), vehicle: water",100 % of control
same,T/C,"dose: 200.0 mg/kg/injection, schedule: Q01DX009 (ip), vehicle: water",118 % of control
CC(C)(C)c1cc2c3c(c1)C(C)(C)OS314(OC2=O)OC(=O)c2cc(C(C)(C)C)cc(c21)C(C)(C)O4,T/C,"dose: 25.0 mg/kg/injection, schedule: Q01DX001 (ip), vehicle: saline with Tween-80",111 % of control
same,T/C,"dose: 50.0 mg/kg/injection, schedule: Q01DX001 (ip), vehicle: saline with Tween-80",92 % of control
same,T/C,"dose: 100.0 mg/kg/injection, schedule: Q01DX001 (ip), vehicle: saline with Tween-80",100 % of control
NC(CO)C(=O)NC(CCC(=O)O)C(=O)NC(CO)C(=O)NC(CCC(=O)O)C(=O)NC(Cc1ccc(N(CCCl)CCCl)cc1)C(=O)O (stereo not drawn) (H-SESE[ξPhe(4-N(CH2CH2Cl)2)]-OH; configuration not given here),T/C,[7],96 % of control
same,T/C,[8],98 % of control
same,T/C,[9],101 % of control
same,T/C,[10],102 % of control and 111 % of control
same,T/C,[11],117 % of control
COc1ccc(C(=O)/C=C/c2ccc(OC)c(OC)c2OCc2ccccc2)c(O)c1,T/C,"dose: 100.0 mg/kg/injection, schedule: Q01DX001 (ip), vehicle: Klucel (hydroxypropylcellulose) (HPC)",94 % of control
same,T/C,"dose: 200.0 mg/kg/injection, schedule: Q01DX001 (ip), vehicle: Klucel (hydroxypropylcellulose) (HPC)",88 % of control
OCCN1CCN(CC/C=C2\c3ccccc3COc3ccc(Cl)cc32)CC1,T/C,"dose: 6.25 mg/kg/injection, schedule: Q04DX003 (ip), vehicle: saline",100 % of control
same,T/C,"dose: 12.5 mg/kg/injection, schedule: Q04DX003 (ip), vehicle: saline",114 % of control and 117 % of control
same,T/C,"dose: 25.0 mg/kg/injection, schedule: Q04DX003 (ip), vehicle: saline",110 % of control
same,T/C,"dose: 50.0 mg/kg/injection, schedule: Q04DX003 (ip), vehicle: saline",110 % of control
same,T/C,"dose: 100.0 mg/kg/injection, schedule: Q04DX003 (ip), vehicle: saline",97 % of control
S=c1nc[nH]c2c1ncn2C1CCCO1 (stereo not drawn),T/C,[4],100 % of control
same,T/C,[6],118 % of control
CCOCCOCCOC12C(=O)C(Cl)=C(Cl)C(=O)C13C1CC2C(Cl)C13 (stereo not drawn),T/C,[12],98 % of control
same,T/C,[13],105 % of control
same,T/C,"dose: 50.0 mg/kg/injection, schedule: Q01DX009 (ip), vehicle: saline",105 % of control and 106 % of control
BrCC[N+]12CC[N+](CCBr)(CC1)C2 (tested in a mixture with another compound),T/C,[7],107 % of control
same,T/C,[8],114 % of control
same,T/C,"dose: 20.0 mg/kg/injection, schedule: Q04DX003 (ip), vehicle: distilled water + Tween-80",122 % of control
same,T/C,[9],100 % of control
same,T/C,"dose: 37.5 mg/kg/injection, schedule: Q04DX003 (ip), vehicle: water",112 % of control
same,T/C,"dose: 40.0 mg/kg/injection, schedule: Q04DX003 (ip), vehicle: distilled water + Tween-80",107 % of control
same,T/C,[10],104 % of control
same,T/C,"dose: 80.0 mg/kg/injection, schedule: Q04DX003 (ip), vehicle: distilled water + Tween-80",118 % of control
same,T/C,[11],110 % of control
same,T/C,"dose: 160.0 mg/kg/injection, schedule: Q04DX003 (ip), vehicle: distilled water + Tween-80",116 % of control
same,T/C,"dose: 160.0 mg/kg/injection, schedule: Q04DX003 (ip), vehicle: water",112 % of control
CC(C)=CCN=c1ncn(CCC(N)C(=O)O)c2nc[nH]c12 (stereo not drawn),T/C,"dose: 3.0 mg/kg/injection, schedule: Q01DX009 (ip), vehicle: Klucel (hydroxypropylcellulose) (HPC)",109 % of control
same,T/C,"dose: 6.0 mg/kg/injection, schedule: Q01DX009 (ip), vehicle: Klucel (hydroxypropylcellulose) (HPC)",105 % of control
same,T/C,"dose: 12.0 mg/kg/injection, schedule: Q01DX009 (ip), vehicle: Klucel (hydroxypropylcellulose) (HPC)",115 % of control
same,T/C,"dose: 24.0 mg/kg/injection, schedule: Q01DX009 (ip), vehicle: Klucel (hydroxypropylcellulose) (HPC)",118 % of control
same,T/C,"dose: 48.0 mg/kg/injection, schedule: Q01DX009 (ip), vehicle: Klucel (hydroxypropylcellulose) (HPC)",108 % of control
O=C(Cc1ccc(-c2ccccc2)cc1)Nc1ccccn1,T/C,"dose: 50.0 mg/kg/injection, schedule: Q01DX009 (ip), vehicle: saline with Tween-80",99 % of control
same,T/C,[3],108 % of control
same,T/C,[5],105 % of control
CC(=O)N(OC1OC(CO)C(O)C(O)C1O)c1ccc(Oc2ccc(Cl)cc2)cc1 (stereo not drawn),T/C,[1],104 % of control
same,T/C,[2],92 % of control
ON=C1C2C=CC=CC1C=C2,T/C,"dose: 6.25 mg/kg/injection, schedule: Q01DX009 (ip), vehicle: saline",90 % of control
same,T/C,[12],96 % of control
same,T/C,[13],90 % of control
CNC(=O)CCC(NS(=O)(=O)c1ccccc1)C(=O)O (stereo not drawn),T/C,"dose: 50.0 mg/kg/injection, schedule: Q01DX005 (ip), vehicle: Klucel (hydroxypropylcellulose) (HPC)",107 % of control
same,T/C,"dose: 100.0 mg/kg/injection, schedule: Q01DX005 (ip), vehicle: Klucel (hydroxypropylcellulose) (HPC)",96 % of control
same,T/C,"dose: 200.0 mg/kg/injection, schedule: Q01DX005 (ip), vehicle: Klucel (hydroxypropylcellulose) (HPC)",95 % of control
C=CC(=NC(C)(C)C)Nc1ccccc1,T/C,"dose: 6.25 mg/kg/injection, schedule: Q01DX009 (ip), vehicle: saline with Tween-80",101 % of control
same,T/C,"dose: 12.5 mg/kg/injection, schedule: Q01DX009 (ip), vehicle: saline with Tween-80",105 % of control
same,T/C,"dose: 25.0 mg/kg/injection, schedule: Q01DX009 (ip), vehicle: saline with Tween-80",108 % of control
